{
  "source": "paper PMC4236622",
  "about": "(Cancer Chemotherapy and Pharmacology, 2014)",
  "key": {"[1]": {"conditions": "humans, cited from earlier work; for time post-dose at which concentrations fall below 0.1 ng/mL: following irinotecan infusion (350 mg/m2 every 21 days), reference not given"}, "HT29 colon tumor [2]": {"test_system": "HT29 colon tumor", "assay": "Activity in HT29 colon tumor xenograft model", "assay_type": "in vivo, mouse", "conditions": "for Median TTE: endpoint 1,000 mm3; for Survivors not reaching tumor endpoint: endpoint 1,000 mm3 or Day 73; for Tumor regression, Complete / Tumor regression, Partial: HT29 colon tumor model, animals/group", "source_text": "(§1) Tumor volume was estimated as described above.\n(§2) Studies were terminated on Days 59 (HT29), 61 (NCI-H460), 72 (MCF-7), 60 (A2780, q7dx3), 76 (A2780 qdx1), and 84 (NCI-N87).\n(§3) Kaplan–Meier plots were constructed to show the percentage of animals remaining in the study to perform the logrank test. Median tumor growth curves show group median tumor volumes as a function of time. When an animal exited the study due to tumor size, the final tumor volume recorded for the animal was included with the data used to calculate the group median tumor volume at subsequent time points."}, "[3]": {"assay": "Tolerability in mouse xenograft studies (body weight, mortality)", "assay_type": "in vivo", "conditions": "all doses, all xenograft models", "source_text": "as §1"}, "MCF-7 breast tumor": {"test_system": "MCF-7 breast tumor", "assay": "Activity in MCF-7 breast tumor xenograft model", "assay_type": "in vivo, mouse", "source_text": "as §1, §2, §3"}, "NCI-N87 gastric tumor": {"test_system": "NCI-N87 gastric tumor", "assay": "Activity in NCI-N87 gastric tumor xenograft model", "assay_type": "in vivo, mouse", "source_text": "as §1, §2, §3"}, "[4]": {"conditions": "mice; no reference given; cited from earlier work"}, "[5]": {"assay": "Plasma and tumor pharmacokinetics in tumor-bearing mice (HT29 and NCI-H460, model not distinguished)", "conditions": "after conventional irinotecan 40 mg/kg iv Days 0, 4, 8", "procedure": "(§4) The length and width of each tumor was recorded 2–3 times a week, and the corresponding tumor volume was estimated using the formula L × W ^2/2 = mm^3, where L and W refer to the larger and smaller perpendicular tumor dimensions, respectively. Animals found moribund or with tumors ≥4,000 mm^3, ulcerated, or sloughed off were euthanized prior to scheduled termination. […] Plasma was harvested, frozen on dry ice, and stored at −80 °C until assayed. Immediately following blood collection, animals were euthanized, and the tumors were excised, frozen in liquid nitrogen, and stored at −80 °C until assayed."}, "NCI-H460 lung tumor [6]": {"test_system": "NCI-H460 lung tumor", "assay": "Activity in NCI-H460 lung tumor xenograft model", "assay_type": "in vivo, mouse", "conditions": "for Median TTE: endpoint 1,500 mm3; for Survivors not reaching tumor endpoint: endpoint 1,500 mm3 or Day 57; for Tumor regression, Complete / Tumor regression, Partial: NCI-H460 lung tumor model, animals/group", "source_text": "as §1, §2, §3"}, "A2780 ovarian tumor": {"test_system": "A2780 ovarian tumor", "assay": "Activity in A2780 ovarian tumor xenograft model", "assay_type": "in vivo, mouse", "source_text": "as §1, §2, §3"}, "HT29 colon tumor [7]": {"test_system": "HT29 colon tumor", "assay": "Tumor PK/PD study in HT29 tumor-bearing mice (tumor volume, inhibitory Emax model)", "assay_type": "in vivo, mouse", "conditions": "Emax fixed at 1", "procedure": "as §4\n(§5) Inhibitory E max response PK/PD models based on the Gompertz equation [32] were developed for both tumor types to represent the rate of tumor growth as a function of tumor SN38 concentration. A schematic diagram of the PK/PD model is shown in Online Resource 1. […] The PD parameter values k gr (tumor intrinsic growth rate; day^−1), Limit (limit of tumor growth), and EC 50 (half-maximal effective inhibitory concentrations; μg/g) were optimized using Runge–Kutta 4 integration and the multiple-fit curve fitting module of Berkeley Madonna."}, "[8]": {"design": "method as in PMID 1651156", "conditions": "cited from earlier work"}, "NCI-H460 lung tumor [9]": {"test_system": "NCI-H460 lung tumor", "assay": "Tumor PK/PD study in NCI-H460 tumor-bearing mice (tumor volume, inhibitory Emax model)", "assay_type": "in vivo, mouse", "conditions": "Emax fixed at 1", "procedure": "as §4, §5"}, "[10]": {"assay": "Pharmacokinetics across nonclinical species (mouse, rat, dog)", "conditions": "rats and dogs, after conventional irinotecan", "description": "Blood samples were collected via a peripheral vein into blood collection tubes containing 1/20th the plasma volume of a dimethyl sulfoxide solution containing 50 mM phenylmethyl sulfonyl fluoride and 1 % acetic acid (v/v). Plasma was harvested by centrifugation at 2,100×g for 20 min at 4 °C. Plasma was further stabilized by addition of 1 % acetic acid and stored at −80 °C until assayed.\nTumor tissue samples were homogenized in a 9× volume of homogenization buffer (containing sodium fluoride, phenylmethyl sulfonyl fluoride, and sodium dodecyl sulfate) prior to extraction of analytes. SN38 from tumor homogenate was extracted using protein precipitation with acetonitrile and quantified by LC–MS/MS using SN38 calibration standards. LC–MS/MS used a Synergy Hydro, 3 µm, 50 × 2.0-mm column, operated at 50 °C, at a flow rate of 0.4 mL/min with a gradient consisting of 0.1 % formic acid in water and 0.1 % formic acid in acetonitrile, coupled to an API 4000 (Applied Biosystems). […] The predicted mouse and measured rat and dog concentration–time profiles were analyzed with noncompartmental methods within WinNonlin (Professional version 5.2; Pharsight Corporation, Mountain View, CA) to estimate customary PK parameters."}, "[11]": {"conditions": "MCF-7 breast tumor model, 40 mg/kg Q4dx3 iv, animals/group"}, "[12]": {"conditions": "NCI-N87 gastric tumor model, 60 mg/kg Q7dx3 iv, animals/group"}, "[13]": {"conditions": "A2780 ovarian tumor model, 100 mg/kg Q7dx3 iv, animals/group"}},
  "data": [
    {"smiles": "CCc1c2c(nc3ccc(OC(=O)N4CCC(N5CCCCC5)CC4)cc13)-c1cc3c(c(=O)n1C2)COC(=O)[C@]3(O)CC", "note": "[Irinotecan]", "values": [
      {"measurement": "time post-dose at which concentrations fall below 0.1 ng/mL", "setting": "[1]", "value": "5 to 7", "unit": "days"},
      {"measurement": "TGD", "setting": "HT29 colon tumor [2]; HT29, 40 mg/kg Q4dx3 iv", "value": 10, "unit": "days"},
      {"measurement": "Median TTE", "setting": "HT29 colon tumor [2]; HT29, 40 mg/kg Q4dx3 iv", "value": 26, "unit": "days"},
      {"measurement": "Survivors not reaching tumor endpoint", "setting": "HT29 colon tumor [2]; HT29, 40 mg/kg Q4dx3 iv", "value": "0/10"},
      {"measurement": "TGD", "setting": "HT29 colon tumor [2]; HT29, 90 mg/kg Q4dx3 iv", "value": 11, "unit": "days"},
      {"measurement": "Median TTE", "setting": "HT29 colon tumor [2]; HT29, 90 mg/kg Q4dx3 iv", "value": 27, "unit": "days"},
      {"measurement": "Survivors not reaching tumor endpoint", "setting": "HT29 colon tumor [2]; HT29, 90 mg/kg Q4dx3 iv", "value": "0/10"},
      {"measurement": "regression responses (animals)", "setting": "HT29 colon tumor [2]; HT29, Q4dx3", "value": "no tumor regression"},
      {"measurement": "Tumor regression, Complete", "setting": "HT29 colon tumor [2]; 40 mg/kg Q4dx3 iv", "value": "0/10"},
      {"measurement": "Tumor regression, Partial", "setting": "HT29 colon tumor [2]; 40 mg/kg Q4dx3 iv", "value": "0/10"},
      {"measurement": "Tumor regression, Complete", "setting": "HT29 colon tumor [2]; 90 mg/kg Q4dx3 iv", "value": "0/10"},
      {"measurement": "Tumor regression, Partial", "setting": "HT29 colon tumor [2]; 90 mg/kg Q4dx3 iv", "value": "0/10"},
      {"measurement": "maximum body weight loss", "setting": "[3]", "value": "≤ 16", "unit": "%"},
      {"measurement": "treatment-related deaths", "setting": "[3]", "value": "no treatment-related deaths"},
      {"measurement": "TGD", "setting": "MCF-7 breast tumor; MCF-7, 40 mg/kg Q4dx3 iv", "value": 22, "unit": "days"},
      {"measurement": "Median TTE", "setting": "MCF-7 breast tumor; MCF-7, 40 mg/kg Q4dx3 iv, endpoint 700 mm3", "value": 59, "unit": "days"},
      {"measurement": "Survivors not reaching tumor endpoint", "setting": "MCF-7 breast tumor; MCF-7, 40 mg/kg Q4dx3 iv, endpoint 700 mm3 or Day 73", "value": "2/10"},
      {"measurement": "regression responses / regression rate (animals)", "setting": "MCF-7 breast tumor; MCF-7, Q4dx3", "value": "≤ 30", "unit": "%"},
      {"measurement": "Tumor regression, Complete", "setting": "MCF-7 breast tumor; [11]", "value": "3/10"},
      {"measurement": "Tumor regression, Partial", "setting": "MCF-7 breast tumor; [11]", "value": "0/10"},
      {"measurement": "TGD", "setting": "NCI-N87 gastric tumor; NCI-N87, 60 mg/kg Q7dx3 iv", "value": 12, "unit": "days"},
      {"measurement": "Median TTE", "setting": "NCI-N87 gastric tumor; NCI-N87, 60 mg/kg Q7dx3 iv, endpoint 800 mm3", "value": 30, "unit": "days"},
      {"measurement": "Survivors not reaching tumor endpoint", "setting": "NCI-N87 gastric tumor; NCI-N87, 60 mg/kg Q7dx3 iv, endpoint 800 mm3 or Day 84", "value": "0/10"},
      {"measurement": "Tumor regression, Complete", "setting": "NCI-N87 gastric tumor; [12]", "value": "0/10"},
      {"measurement": "Tumor regression, Partial", "setting": "NCI-N87 gastric tumor; [12]", "value": "0/10"},
      {"measurement": "single-dose LD10", "setting": "[4]", "value": "~ 120 mg/kg"},
      {"measurement": "plasma irinotecan AUC", "setting": "[5]", "value": 1.2, "unit": "µg·days/mL"},
      {"measurement": "tumor irinotecan AUC", "setting": "[5]", "value": 4.2, "unit": "µg·days/g"},
      {"measurement": "regression responses (animals)", "setting": "NCI-H460 lung tumor [6]; H460, Q4dx3", "value": "no tumor regression"},
      {"measurement": "TGD", "setting": "NCI-H460 lung tumor [6]; NCI-H460, 40 mg/kg Q4dx3 iv", "value": 11, "unit": "days"},
      {"measurement": "Median TTE", "setting": "NCI-H460 lung tumor [6]; NCI-H460, 40 mg/kg Q4dx3 iv", "value": 23, "unit": "days"},
      {"measurement": "Survivors not reaching tumor endpoint", "setting": "NCI-H460 lung tumor [6]; NCI-H460, 40 mg/kg Q4dx3 iv", "value": "0/10"},
      {"measurement": "TGD", "setting": "NCI-H460 lung tumor [6]; NCI-H460, 90 mg/kg Q4dx3 iv", "value": 12, "unit": "days"},
      {"measurement": "Median TTE", "setting": "NCI-H460 lung tumor [6]; NCI-H460, 90 mg/kg Q4dx3 iv", "value": 24, "unit": "days"},
      {"measurement": "Survivors not reaching tumor endpoint", "setting": "NCI-H460 lung tumor [6]; NCI-H460, 90 mg/kg Q4dx3 iv", "value": "0/10"},
      {"measurement": "Tumor regression, Complete", "setting": "NCI-H460 lung tumor [6]; 40 mg/kg Q4dx3 iv", "value": "0/10"},
      {"measurement": "Tumor regression, Partial", "setting": "NCI-H460 lung tumor [6]; 40 mg/kg Q4dx3 iv", "value": "0/10"},
      {"measurement": "Tumor regression, Complete", "setting": "NCI-H460 lung tumor [6]; 90 mg/kg Q4dx3 iv", "value": "0/10"},
      {"measurement": "Tumor regression, Partial", "setting": "NCI-H460 lung tumor [6]; 90 mg/kg Q4dx3 iv", "value": "0/10"},
      {"measurement": "TGD", "setting": "A2780 ovarian tumor; A2780, 100 mg/kg Q7dx3 iv", "value": 15, "unit": "days"},
      {"measurement": "Median TTE", "setting": "A2780 ovarian tumor; A2780, 100 mg/kg Q7dx3 iv, endpoint 2,000 mm3", "value": 29, "unit": "days"},
      {"measurement": "Survivors not reaching tumor endpoint", "setting": "A2780 ovarian tumor; A2780, 100 mg/kg Q7dx3 iv, endpoint 2,000 mm3 or Day 60", "value": "0/10"},
      {"measurement": "Tumor regression, Complete", "setting": "A2780 ovarian tumor; [13]", "value": "0/10"},
      {"measurement": "Tumor regression, Partial", "setting": "A2780 ovarian tumor; [13]", "value": "0/10"}
    ]},
    {"smiles": "CCc1c2c(nc3ccc(O)cc13)-c1cc3c(c(=O)n1C2)COC(=O)[C@]3(O)CC", "note": "[SN38, 10-hydroxy-7-ethyl camptothecin]", "values": [
      {"measurement": "t1/2 of SN38", "setting": "[1]; conventional irinotecan", "value": "24 to 47", "unit": "h"},
      {"measurement": "time post-dose at which concentrations fall below 0.1 ng/mL", "setting": "[1]", "value": "5 to 7", "unit": "days"},
      {"measurement": "EC50 (half-maximal effective inhibitory tumor SN38 concentration)", "setting": "HT29 colon tumor [7]", "value": 0.20, "unit": "µg/g"},
      {"measurement": "cytotoxicity in vitro, potency compared with irinotecan", "setting": "[8]", "value": "100- to 1,000 fold"},
      {"measurement": "EC50 (half-maximal effective inhibitory tumor SN38 concentration)", "setting": "NCI-H460 lung tumor [9]", "value": 1.2, "unit": "µg/g"},
      {"measurement": "time post-dose at which plasma SN38 was undetectable", "setting": "[10]", "value": 24, "unit": "h"}
    ]}
  ]
}
